Publication PMC5764337 (PLoS ONE, 2018)

What was measured:
B/BR/60/08 virus NA = B/BR/60/08 virus NA (Influenza B virus, UniProt C0LT34); assay type: biochemical; settings: read-out: NA enzyme inhibition assay (mean IC50 ± SD)
A/PR8-WT virus NA = A/PR8-WT virus NA (Influenza A virus (H3N2), UniProt A0A193ACB1); assay type: biochemical

Q: What does the source list for `CCC(CC)[C@H](NC(C)=O)[C@@H]1[C@H](O)[C@@H](C(=O)O)C[C@H]1N=C(N)N` [Peramivir, peramivir]?
A: IC50 (B/BR/60/08 virus NA): 0.5 nM; fold increase in IC50 over A/PR8-WT (A/PR8-WT virus NA): 0.1 ± 0.02 (1) fold; IC50 (A/PR8-WT virus NA; read-out: NA enzyme inhibition assay (mean IC50 ± SD)): 0.1 nM
